Data set [1] has as its system OM-10.1 cells. Nature of the data set: inhibition of HIV-1 activation / HIV expression in chronically infected OM-10.1 cells (TNF-α induced). The format is cell-based, human immunodeficiency virus type 1 (HIV-1). The following applies: Human immunodeficiency virus 1. The source says: The cellular pathways involved in mediating the activating signal from the plasma membrane to the integrated virus, resulting in HIV-1 expression, are much less clear. Recently, the development of a reliable and simple system for evaluating compounds that could prevent activation of latent HIV was reported at a National Cooperative Discovery Grant (NCDDG)/AIDS meeting by P. Feorino, S. T. Butera, T. M. Folks, and R. F. Schinazi, Nov. 3-7, 1991. The assay system employed the OM-10.1 cell line, a unique chronically-infected promyelocytic clone which remains CD4+ until HIV-1 activation with tumor necrosis factor-α. The expression of CD4+ on the cell surface and the activity of reverse transcriptase are used as markers for quantitating viral expression. Alternatively, other HIV markers, such as protease activity, which are known to those of skill in the art can be used. OM-10.1 cells remain CD4+ until viral activation and respond to tumor necrosis factor induction, and therefore, these cultures are used to conveniently and rapidly examine pharmacologics for an ability to prevent CD4+ down modulation (decrease in expression of CD4+ on the cell surface) and HIV-1 expression.
A variety of compounds known to have antiviral properties against either acutely or chronically infected cells were evaluated for their ability to inhibit HIV expression in these OM-10.1 cells. […]

Another data set concerns wild type HSV-1. As to the kind of experiment: PRA (plaque reduction assay with wild type HSV-1). The format is cell-based. The following applies: read-out: IC50 Inhibitory Activity (PRA). On the technique in general: Plaque reduction counts the foci of infection that form in a cell layer.
For a further data set, the system named is Vero cells. The following applies: monkey, 120 h. As for the experimental part: This screen was designed to identify compounds which inhibit HSV-1 in phases of its life cycle from adsorption and penetration through late gene expression. The primary screen, AVUS1, involves adding single compounds to a monolayer of Vero cells to a final concentration of 25 μg/mL, then infecting the cells with a recombinant HSV-1, Us3::Tn5-lacZ. This virus contains an insertion of a lacZ gene driven by a viral late promoter in the US3 protein kinase gene of HSV-1. The infection is allowed to proceed for 20 hours, then the cells are lysed with a solution of Triton X-100 and CPRG in "Z" buffer and assayed for β-galactosidase activity. The positive control used is solvent alone without compound, which corresponds to 0% inhibition, and the negative control used is either no virus added to the wells or 0.5% Triton X-100 added to the wells, which corresponds to 100% inhibition. Percent inhibition of a compound is then calculated using these positive and negative controls. […] In AVUS3, the test compound is dissolved in MeOH at 20 mM. A titration of the compound is then assayed in both the same β-galactosidase virus replication inhibition assay and a 5-day XTT toxicity assay. […]

For a further data set, the system named is herpesvirus. Nature of the data set: SGC anti-herpesvirus assay. The format is cell-based. The conditions noted are these: read-out: IC50 Inhibitory Activity (SGC).
The subject of data set [2] is OM-10.1 cells. The following applies: NCDDG/AIDS poster, San Diego, Nov. 3-7 (1991); cited from earlier work.
Data set [3] deals with TPA-mediated CD4 down regulation and HIV expression. The following applies: Hamamoto et al. 1989; cited from earlier work.

One may read the IC50 as the concentration that inhibits the measured activity by half. Broadly, the CC50 is the concentration giving 50% cytotoxicity. A low value points to greater toxicity to the cells.

Read-outs that look alike come from different tables or passages of the source.

For the compound `COc1ccc2sc3c(c2c1)SCCNC3=O` [2,3-Dihydro-9-methoxy[1]benzothieno[2,3-f]-1,4-thiazepin-5(4H)-one], the IC50 in the data set with OM-10.1 cells [1] stood at 210 nM; in the data set with wild type HSV-1 (Human alphaherpesvirus 1, PRA), 450 nM; in the data set with wild type HSV-1 (PRA), 550 nM; in the data set on herpesvirus, 350 nM. For the same compound, in the data set with Vero cells, the CC50 was determined as 60000 nM.
Turning to `Cc1cn([C@H]2C[C@H](F)[C@@H](CO)O2)c(=O)[nH]c1=O` [3'-fluoro-3'-deoxythymidine (FLT), 3'-fluoro-3'-deoxythymidine], the “inhibition of the activation of HIV-1 (in words)” value in the data set on OM-10.1 cells [2] is listed as “modest inhibitors of the activation of HIV-1”.
Regarding `CCCCCCCCCCCCCC(=O)O[C@@H]1[C@@H](C)[C@@]2(O)[C@@H](C=C(CO)C[C@]3(O)C(=O)C(C)=C[C@@H]23)[C@@H]2C(C)(C)[C@]12OC(C)=O` [12-O-tetradecanoylphorbol-13-acetate], in data set [3], the “effect on CD4 and viral expression in HIV-infected cells (in words)” value was “mediates CD4 down regulation and viral expression in HIV-infected cells”.
As to `CC(=O)N(O)CCCCCNC(=O)CCC(=O)N(O)CCCCCNC(=O)CCC(=O)N(O)CCCCCN` [desferrioxamine], in the data set on OM-10.1 cells [2], the “inhibition of the activation of HIV-1 (in words)” value is on record as “modest inhibitors of the activation of HIV-1”.

Source of the values: patent US5703069A, “Method for inhibiting and controlling viral growth” (Warner-Lambert Company, priority 1996, dated 1997).
